This note sets out measurements from PubChem BioAssay (NCI).

Each structure is given as a SMILES string. Several values for one entry are separate records, joined by “and”; a condition that tells them apart may be missing. Equal values may be shown once.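 Compound exposure: 48 hours, 5 concentrations, 96-well plates. GI50 = concentration required for 50% inhibition of growth. TGI: concentration producing complete growth inhibition.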

Test systems include MCF7 breast; SNB-75 CNS; CCRF-CEM leukemia; OVCAR-4 ovarian; U251 CNS; IGROV1 ovarian; MDA-MB-231 breast; SF-295 CNS; UO-31 renal; SK-MEL-28 melanoma.
Common to all, as to assay: growth of human tumour cells (NCI), 48 h

In the case of `COc1cc2c3c(n(CCCCOC(=O)C(F)(F)F)c(=O)c2cc1OC)-c1cc2c(cc1C3=O)OCO2`, the GI50 in the assay on MCF7 breast was > 48.8 µM; in the assay on SNB-75 CNS, > 86.8 µM; in the assay on CCRF-CEM leukemia it was 5.01 µM; in the assay with OVCAR-4 ovarian, > 100 µM; in the assay on U251 CNS, > 38.8 µM; in the assay with IGROV1 ovarian it was > 26.3 µM. The GI50 with MDA-MB-231 breast was 31.9 µM; in the assay on SF-295 CNS it was > 41.7 µM; with UO-31 renal it was > 100 µM; in the assay with SK-MEL-28 melanoma, > 100 µM. Also, the TGI in the assay with MCF7 breast, in the assay on SNB-75 CNS, in the assay with CCRF-CEM leukemia, in the assay on OVCAR-4 ovarian, in the assay on U251 CNS and in the assay with IGROV1 ovarian was > 100 µM each time. For the same compound, the TGI is > 82.2 µM in the assay with MDA-MB-231 breast, > 100 µM with SF-295 CNS, > 100 µM in the assay on UO-31 renal and > 100 µM with SK-MEL-28 melanoma.
`COC(=O)NC1C(C)OC(OC2C/C=C(/C)C3C=CC4C(OC5CC(OC6CC(O)C(OC7CC(O)C(OC)C(C)O7)C(C)O6)C(O)C(C)O5)C(C)CC(C)C4C3(C)/C(O)=C3\C(=O)OC4(CC(C)C(CO)=CC4/C=C\2C)C3=O)CC1(C)[N+](=O)[O-]` (stereo unspecified): the GI50 was 11.8 µM with MCF7 breast; 11 µM in the assay on SNB-75 CNS; 9.71 µM in the assay with CCRF-CEM leukemia; 12.7 µM with IGROV1 ovarian; 14.4 µM with UO-31 renal; 9 µM in the assay with SK-MEL-28 melanoma. Moreover, the TGI with MCF7 breast is 44 µM and 13.3 µM; in the assay on SNB-75 CNS, 33.5 µM and 46.2 µM; with CCRF-CEM leukemia, 36.8 µM and 23.6 µM; with OVCAR-4 ovarian, 11.8 µM; in the assay on U251 CNS, 32.2 µM and 27.6 µM; in the assay with IGROV1 ovarian, 34 µM and 28.5 µM. For the same compound, the TGI in the assay on MDA-MB-231 breast is 36 µM; in the assay on SF-295 CNS it was 50 µM and 38.9 µM; with UO-31 renal, 50 µM and 34.3 µM; in the assay with SK-MEL-28 melanoma, 16.6 µM and 36 µM.
As for `COc1cccc(C2c3cc4c(cc3OC(C)(O)C2C)OCO4)c1O` (stereo unspecified), the TGI is 49.6 µM with MCF7 breast; 30.8 µM in the assay on SNB-75 CNS; 33.8 µM in the assay on CCRF-CEM leukemia; > 96.1 µM in the assay on OVCAR-4 ovarian; 21.1 µM in the assay with U251 CNS; 69.2 µM in the assay with IGROV1 ovarian. Besides, the TGI in the assay with MDA-MB-231 breast was 19.2 µM; with SF-295 CNS, 14.1 µM; in the assay with UO-31 renal it was 52.6 µM; in the assay on SK-MEL-28 melanoma, > 100 µM.
Turning to `C1=Cc2ccccc2Nc2ccccc21`, the GI50 in the assay on MCF7 breast is 74.7 µM; in the assay on SNB-75 CNS, > 100 µM; with CCRF-CEM leukemia, > 100 µM; in the assay with OVCAR-4 ovarian, > 100 µM; in the assay on U251 CNS, > 100 µM; with IGROV1 ovarian, > 100 µM. Further, the GI50 with MDA-MB-231 breast, with SF-295 CNS, in the assay with UO-31 renal and in the assay on SK-MEL-28 melanoma was > 100 µM in each case. In addition, the TGI with MCF7 breast, in the assay on SNB-75 CNS, in the assay on CCRF-CEM leukemia, in the assay with OVCAR-4 ovarian, in the assay with U251 CNS and in the assay with IGROV1 ovarian was > 100 µM each time. The TGI in the assay on MDA-MB-231 breast, with SF-295 CNS, in the assay with UO-31 renal and in the assay with SK-MEL-28 melanoma was > 100 µM in each case.
With `CCOc1c(Br)cc(C2C(C(=O)OC)=CN(C)C=C2C(=O)OC)cc1OC`, the GI50 was 40.6 µM in the assay with MCF7 breast; 26.1 µM in the assay on SNB-75 CNS; 40.1 µM in the assay on CCRF-CEM leukemia; 54.1 µM in the assay on OVCAR-4 ovarian; 42.6 µM in the assay with U251 CNS; > 100 µM in the assay with IGROV1 ovarian. For the same compound, the GI50 in the assay on MDA-MB-231 breast is 32.8 µM; in the assay on SF-295 CNS, 57.9 µM; in the assay with UO-31 renal, 28.8 µM; in the assay with SK-MEL-28 melanoma, > 100 µM. Moreover, the TGI in the assay on MCF7 breast, with SNB-75 CNS, in the assay on CCRF-CEM leukemia, with OVCAR-4 ovarian, in the assay with U251 CNS and in the assay on IGROV1 ovarian was > 100 µM each time. Moreover, the TGI in the assay on MDA-MB-231 breast, in the assay on SF-295 CNS, in the assay on UO-31 renal and in the assay with SK-MEL-28 melanoma was > 100 µM throughout.
Consider `O=c1c2cccc(Cl)c2sc2c(NCCCNCCO)nc3ccccc3c12`, for which the GI50 with MCF7 breast is 1.13 µM; in the assay with SNB-75 CNS, 7.69 µM; in the assay on CCRF-CEM leukemia it was 2.34 µM; with OVCAR-4 ovarian, 5.43 µM; in the assay with U251 CNS it was 1.84 µM; in the assay with IGROV1 ovarian it was 0.941 µM. The GI50 in the assay with MDA-MB-231 breast is 1.4 µM; in the assay on SF-295 CNS, 6.29 µM; in the assay on UO-31 renal, 1.02 µM; in the assay with SK-MEL-28 melanoma, 1.85 µM. In addition, the TGI in the assay with MCF7 breast was 2.66 µM; in the assay with SNB-75 CNS, 22 µM; in the assay on CCRF-CEM leukemia, 8.39 µM; in the assay with OVCAR-4 ovarian, 19.6 µM; in the assay on U251 CNS, 4.13 µM; with IGROV1 ovarian, 6.86 µM. Besides, the TGI in the assay with MDA-MB-231 breast stood at 3.54 µM; in the assay on SF-295 CNS, 20.2 µM; in the assay on UO-31 renal it was 3.95 µM; in the assay with SK-MEL-28 melanoma, 3.54 µM.
